Positions of bridges follow the written chain, without caps; N, C: chain ends. No end group written: not given here.
Experiments:
[1] = tested on: HK-2 (Human Kidney-2) cells; test: HK-2 cell culture, TNF-alpha induced cytokine and adhesion molecule production (ELISA); assay type: cell-based; details: proximal tubule cells
Description: Injury of PTEC by TNF-α and cisplatin (an anti-neoplastic agent) results in the induction of apoptosis, as shown by DNA damage, mitochondial disfunction, BAX […] and caspase activation. BMP-7 protects PTEC/kidney function by inhibiting TNF-α and cisplatin-induced apoptosis in these cells. The immortalized PTEC-derived HK-2 (Human Kidney-2) cells (ATCC number CRL-2190) were grown in serum-free keratinocyte medium (GIBCO number 17005-042) supplemented with epidermal growth factor (EGF: 5 ng/mL) and bovine pituitary extract (40 ug/mL) for 48 hours as described previously (Ryan et al. (1994) Kidney International 45:48-57). Cells were transferred to 24-well plates at a density of 3×10^5 cells per well. After 24 hours, cells were incubated with fresh medium containing TNF-alpha (5 ng/mL) for 20 hours. Controls received medium alone. Then cells were washed twice with fresh culture medium and further incubated with culture medium alone (medium control, and TNF control wells) or TDF-1 at three different concentrations (40, 200 or 1000 ng/mL) or TDFRP compounds at three different concentrations (4, 20 or 100 uM) for sixty hours. During incubation, cells were kept in a 5% CO2 humid atmosphere at 37° C. […] The concentrations of IL-6, IL-8 and sICAM-1 in culture supernatants were measured by specific ELISA (FIG. 14). […]

STZ CD1 mice = test: Streptozotocin (STZ)-induced diabetic nephropathy model; assay type: in vivo, mouse; details: ip 5 mg/kg/24 hr, month 5 through 6
Description: Reversal of interstitial fibrosis by TDFRP compounds in a CD1 mouse model of streptozotocin (STZ)-induced diabetic nephropathy. A. Schematic of the STZ experimental protocol. Mice were injected with streptozotocin at Day 0 (D0) to induce diabetes and renal injury and sacrificed at 6 months (6M). Vehicle or BMP-7 (positive control) was administered from D0 through 6 months (6M). TDFRP (SEQ ID NO:45) was administered either orally or intraperitoneally from month 5 (5M) through 6M for 30 total days.; B: Kidney section of vehicle-treated STZ animal showing significant interstitial fibrosis; C: Kidney section of STZ animal that received ip administration of TDFRP compound (SEQ ID NO:45) (5 mg/kg/24 hr).
STZ-induced Type 1 diabetes is a widely used experimental model for diabetic nephropathy. Mice given iv STZ develop a progressive loss of pancreatic beta cells culminating in diabetes and renal damage within a six month period of time. In a typical experiment, TDFRP compounds can alleviate fibrosis, reduce proteinuria and protect the kidneys from STZ damage.
The effect of TDFRP compounds on cell damage due to diabetic nephropathy is measured by the method of Wang and coworkers (Wang et al., (2003) 63(6): 2037) (FIG. 8A). Diabetes is induced in 200 g rats by a single dose of streptozotocin.

[2] = tested on: renal tubular epithelial cells; details: 100 ng/ml, 48 hours; cited from earlier work
ALK-6 = ALK-6 (Homo sapiens, UniProt O00238); details: native protein; cited from earlier work
ALK-6, sequence (O00238 14-502): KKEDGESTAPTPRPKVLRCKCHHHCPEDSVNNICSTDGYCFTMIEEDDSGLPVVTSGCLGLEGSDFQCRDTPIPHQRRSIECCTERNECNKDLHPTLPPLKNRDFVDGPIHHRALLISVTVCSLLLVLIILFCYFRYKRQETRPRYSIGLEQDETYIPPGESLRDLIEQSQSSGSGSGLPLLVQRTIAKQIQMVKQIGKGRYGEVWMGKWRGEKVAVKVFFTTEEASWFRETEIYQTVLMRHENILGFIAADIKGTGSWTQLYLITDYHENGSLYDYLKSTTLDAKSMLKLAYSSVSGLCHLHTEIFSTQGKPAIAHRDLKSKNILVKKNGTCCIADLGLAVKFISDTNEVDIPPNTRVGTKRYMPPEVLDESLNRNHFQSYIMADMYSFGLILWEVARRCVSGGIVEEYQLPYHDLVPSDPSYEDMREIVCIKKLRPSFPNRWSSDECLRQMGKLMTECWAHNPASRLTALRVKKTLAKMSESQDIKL

Row | Molecule | TNF-alpha induced inflammatory response (increase in IL-6) [1] | renal interstitial fibrosis (STZ CD1 mice) | TGF-beta1 induced EMT [2] | affinity of binding to ALK-6 (ALK-6)
1 | CYFDDSSNVLCKKYRS (disulfide 1-11 (inferred); not fully specified) [SEQ ID NO:45] | alleviate | effectively reversed | – | –
2 | BMP-7: recombinant human mature BMP-7 (BMP-7 or TDF-1), positive control therapy (protein) STGSKQRSQNRSKTPKNQEALRMANVAENSSSDQRQACKKHELYVSFRDLGWQDWIIAPEGYAAYYCEGECAFPLNSYMNATNHAIVQTLVHFINPETVPKPCCAPTQLNAISVLYFDDSSNVILKKYRNMVVRACGCH | – | – | reverses | higher affinity

— US8911953B2, “TDF-related compounds and analogs thereof, analogs and bioactive fragments” (Thrasos Innovation, Inc., priority 2005, dated 2014)
